Patent US20250145589A1, “PYRIDINE DERIVATIVE AND USE THEREOF” (SICHUAN HUIYU PHARMACEUTICAL CO., LTD., priority 2021, published 2025)

Experiments:
Assay type in all cases: cell-based
[1] = tested on: MIA PaCa-2-AMGR drug-resistant cell line; assay: MIA PaCa-2-AMGR drug-resistant cell proliferation inhibitory activity test; conditions: 72 h, MIA PaCa-2-AMGR drug-resistant cells, 3 days incubation, CellTiter-Glo
Procedure, shortened: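 MIA PaCa-2 line made resistant by stepwise AMG510 exposure up to 1 μM. Cells seeded at 4×10^3/well overnight, then treated with 8 concentrations (5-fold dilutions) for 3 days at 37° C, 5% CO2 in DMEM with 10% FBS + 2.5% horse serum. Viability by CellTiter-Glo luminescence; IC50 versus no-inhibitor control.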

[2] = tested on: MIA PaCa-2 cells (KRAS G12C mutant); assay: MIA PaCa-2 cell anti-proliferation (CellTiter-Glo); conditions: Homo sapiens, 72 h; MIA Paca-2 cells, 3 days, Table 7; read-out: MIA PaCa-2 (IC50)
Procedure, shortened: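 Viable-cell luminescence (CellTiter-Glo, ≥30 min at 25 °C) measured after a 3-day, 37 °C exposure to compounds at 9 points, 4-fold spaced, in DMEM containing 10% FBS plus 2.5% horse serum. IC50 derived versus no-inhibitor wells.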

[3] = tested on: NCI-H358-AMGR drug-resistant cell line; assay: NCI-H358-AMGR drug-resistant cell proliferation inhibitory activity test; conditions: 72 h; NCI-H358-AMGR drug-resistant cells, 3 days incubation, CellTiter-Glo
Procedure, shortened: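 Luminescent CellTiter-Glo read-out after 3-day, 37° C compound exposure (8 points, 5-fold series) of AMG510-resistant NCI-H358 cells plated at 4×10^3 per well.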

Structure (SMILES)	IC50 [1] [nM]	IC50 [2] [nM]	IC50 [3] [nM]
COc1ncc(-c2ccc3ncnc(N4CCN(C(=O)/C=C/C(C)=O)CC4)c3c2)cc1NS(=O)(=O)c1ccc(C#N)cc1F [Example 123, (E)-4-cyano-2-fluoro-N-(2-methoxy-5-(4-(4-(4-oxopent-2-enoyl)piperazin-1-yl)quinazolin-6-yl)pyridin-3-yl)benzenesulfonamide]	328	84.1	118
COc1ncc(-c2ccc3ncnc(N4CCN(C(=O)/C=C/C(C)=O)CC4)c3n2)cc1NS(=O)(=O)c1cccc(F)c1F [Example 218, (E)-2,3-difluoro-N-(2-methoxy-5-(4-(4-(4-oxopent-2-enoyl)piperazin-1-yl)pyrido[3,2-d]pyrimidin-6-yl)pyridin-3-yl) benzene-sulfonamide]	16.1	21.5	13.5
COc1ncc(-c2ccc3ncnc(N4CCN(C(=O)/C=C/C(C)=O)CC4)c3n2)cc1NS(=O)(=O)c1c(F)cc(F)cc1F [Example 219, (E)-2,4-trifluoro-N-(2-methoxy-5-(4-(4-(4-oxopent-2-enoyl)piperazin-1-yl)pyrido[3,2-d]pyrimidin-6-yl)pyridin-3-yl) benzene-sulfonamide]	6.4	5.8	15.9
COc1ncc(-c2ccc3ncnc(N4CCN(C(=O)/C=C/C(C)=O)[C@@H](CC#N)C4)c3c2)cc1NS(=O)(=O)c1c(F)cccc1F [Example 116, (S,E)-N-(5-(4-(3-(cyanomethyl)-4-(4-oxopent-2-enoyl)piperazin-1-yl)quinazolin-6-yl)-2-methoxypyridin-3-yl)-2,6-difluorobenzenesulfonamide]	462	107	232
C=CC(=O)N1CCN(c2ncnc3ccc(-c4cnc(OC)c(NS(=O)(=O)c5ccc(F)cc5F)c4)cc23)[C@@H](C)C1 [Example 7, (S)—N-(5-(4-(4-acryloyl-2-methylpiperazin-1-yl)quinazolin-6-yl)-2-methoxypyridin-3-yl)-2,4-difluorobenzenesulfonamide]	222	32.3	41.7
COc1ncc(-c2ccc3ncnc(C4CCN(C(=O)/C=C/C(C)=O)CC4)c3n2)cc1NS(=O)(=O)c1ccccc1F [Example 232, (E)-2-fluoro-N-(2-methoxy-5-(4-(1-(4-oxopent-2-enoyl)piperidin-4-yl)pyrido[3,2-d]pyrimidin-6-yl)pyridin-3-yl)benzenesulfonamide]	9	17.7	44
COc1ncc(-c2ccc3ncnc(N4CCC5(CC4)CN(C(=O)/C=C/C(C)=O)C5)c3c2)cc1NS(=O)(=O)c1ccccc1F [Example 150, (E)-2-fluoro-N-(2-methoxy-5-(4-(2-(4-oxopent-2-enoyl)-2,7-diazaspiro[3.5]nonan-7-yl)quinazolin-6-yl)pyridin-3-yl)benzenesulfonamide]	55.1	58.5	112
COc1ncc(-c2ccc3ncnc(N4CCC5(CC4)CN(C(=O)/C=C/C(C)=O)C5)c3c2)cc1NS(=O)(=O)c1ccc(F)cc1 [Example 161, (E)-4-fluoro-N-(2-methoxy-5-(4-(2-(4-oxopent-2-enoyl)-2,7-diazaspiro[3.5]nonan-7-yl)quinazolin-6-yl)pyridin-3-yl)benzenesulfonamide]	55.3	67.8	145
COc1ncc(-c2ccc3ncnc(N4CCC5(CC4)CN(C(=O)/C=C/C(C)=O)C5)c3c2)cc1NS(=O)(=O)c1sc(C)nc1C [Example 178, (E)-N-(2-methoxy-5-(4-(2-(4-oxopent-2-enoyl)-2,7-diazaspiro[3.5]nonan-7-yl)quinazolin-6-yl)pyridin-3-yl)-2,4-dimethyl-thiazole-5-sulfonamide]	34	43.1	66.2
[2H]C([2H])([2H])Oc1ncc(-c2ccc3ncnc(N4CCN(C(=O)/C=C/C(C)=O)CC4)c3c2)cc1NS(=O)(=O)c1ccc(F)cc1F [Example 191, (E)-2,4-difluoro-N-(2-(methoxy-d3)-5-(4-(4-(4-oxopent-2-enoyl)piperazin-1-yl)quinazolin-6-yl)pyridin-3-yl)benzene-sulfonamide]	40.8	54.2	36.4
COc1ncc(-c2ccc3ncnc(N4CCN(C(=O)/C=C/C(C)=O)CC4)c3n2)cc1NS(=O)(=O)c1c(F)cccc1F [Example 131, (E)-2,6-difluoro-N-(2-methoxy-5-(4-(4-(4-oxopent-2-enoyl)piperazin-1-yl)pyrido[3,2-d]pyrimidin-6-yl)pyridin-3-yl)benzenesulfonamide]	29.6	25	19.1
COc1ncc(-c2ccc3ncnc(N4CC5CCC(C4)N5C(=O)/C=C/C(C)=O)c3c2)cc1NS(=O)(=O)c1c(F)cc(F)cc1F [Example 155]	112	77.6	164
COc1ncc(-c2ccc3ncnc(N4CCC5(CC4)CN(C(=O)/C=C/C(C)=O)C5)c3c2)cc1NS(=O)(=O)c1c(F)cccc1F [Example 49, (E)-2,6-difluoro-N-(2-methoxy-5-(4-(2-(4-oxopent-2-enoyl)-2,7-diazaspiro[3.5]nonan-7-yl)quinazolin-6-yl)pyridin-3-yl) benzenesulfonamide]	62.4	110	45.5
COc1ncc(-c2ccc3ncnc(N4CCN(C(=O)/C=C/C(C)=O)CC4)c3c2)cc1NS(C)(=O)=O [Example 170, (E)-N-(2-methoxy-5-(4-(4-(4-oxopent-2-enoyl)piperazin-1-yl)quinazolin-6-yl)pyridin-3-yl)methane-sulfonamide]	183	118	380
COc1ncc(-c2ccc3ncnc(N4CCN(C(=O)/C=C/C(C)=O)C[C@@H]4C)c3c2)cc1NS(=O)(=O)c1c(F)cc(F)cc1F [Example 154, (S,E)-2,4,6-trifluoro-N-(2-methoxy-5-(4-(2-methyl-4-(4-oxopent-2-enoyl)piperazin-1-yl)quinazolin-6-yl)pyridin-3-yl)benzenesulfonamide]	32.2	28.8	61.6
COc1ncc(-c2ccc3ncnc(N4CCN(C(=O)/C=C/C(C)=O)CC4)c3c2)cc1NS(=O)(=O)c1ccncc1C [Example 172, (E)-N-(2-methoxy-5-(4-(4-(4-oxopent-2-enoyl)piperazin-1-yl)quinazolin-6-yl)pyridin-3-yl)-3-methyl-pyridine-4-sulfonamide]	256	171	451
COc1ncc(-c2ccc3ncnc(N4CCN(C(=O)/C=C/C(C)=O)CC4)c3c2)cc1NS(=O)(=O)c1cc(F)ccc1F [Example 94, (E)-2,5-difluoro-N-(2-methoxy-5-(4-(4-(4-oxopent-2-enoyl)piperazin-1-yl)quinazolin-6-yl)pyridin-3-yl)benzenesulfonamide]	126	65.9	65.2
COc1ncc(-c2ccc3ncnc(C4CCN(C(=O)/C=C/C(C)=O)CC4)c3n2)cc1NS(=O)(=O)c1ccc(F)cc1F [Example 234, (E)-2,4-difluoro-N-(2-methoxy-5-(4-(1-(4-oxopent-2-enoyl)piperidin-4-yl)pyrido[3,2-d]pyrimidin-6-yl)pyridin-3-yl)benzenesulfonamide]	5.3	14.9	58.2
